# Assay results reported in EP3125690B1, “HERBICIDAL MIXTURE OF CAROTENOID BIOSYNTHESIS INHIBITING COMPOUND AND AN AHAS/ALS INHIBITING COMPOUND AND USES THEREOF” (Adama Agan Ltd., priority 2014, dated 2015).
# Legend:
# Format in all cases: in vivo
# [1] = system: Mercurialis annua; test: Herbicide efficacy trial in sunflower crop, Example 1 (0 to 100 scale); settings: avg, n 2
# Excerpt: (§1) Four herbicide treatments were compared: • a) Imazamox 20 g/l + Aclonifen 300 g/l SC formulation (Application Rate of 2.0 l/ha) • b) Imazamox 40 g/l SC + Aclonifen 600 g/l SC tank-mix (Application Rate of 1.0 l/ha + 1.0 l/ha) • c) Imazamox 40 g/l SL formulation (commercially available as Pulsar) (Application Rate of 1.0 1/ha) • d) Aclonifen 600 g/l SC formulation (Application Rate of 1.0 l/ha)
# (§2) The above treatments were applied to a variety of weeds. The results are based on a 0 to 100 scale where 0 is no effect and 100 is complete control. Table 2 compares the individual applications aclonifen and imazamox with the tank-mix of the two active ingredients as well as the ready-mix formulation of aclonifen and imazamox.
# (§3) The trial detailed in Tables 1-4 were conducted on Sunflower crop in France, Hungary and Romania.
# [2] = system: Echinochloa crus-galli; test: as above; settings: avg, n 3
# Excerpt: as §1, §2, §3
# [3] = system: Sonchus arvensis; test: as above; settings: avg, n 1
# Excerpt: as §1, §2, §3
# [4] = system: Digitaria sanguinalis; test: as above; settings: avg, n 1
# Excerpt: as §1, §2, §3
# [5] = system: Ambrosia artemisiifolia; test: as above; settings: avg, n 2
# Excerpt: as §1, §2, §3
# [6] = system: Persicaria lapathifolia; test: as above; settings: avg, n 1
# Excerpt: as §1, §2, §3
# [7] = system: Hibiscus trionum; test: as above; settings: avg, n 2
# Excerpt: as §1, §2, §3
# [8] = system: Setaria pumila; test: as above; settings: avg, n 1
# Excerpt: as §1, §2, §3
# [9] = system: Abutilon theophrasti; test: as above; settings: avg, n 1
# Excerpt: as §1, §2, §3
# [10] = system: Conyza Canadensis; test: as above; settings: avg, n 1
# Excerpt: as §1, §2, §3
# [11] = system: Calystegia sepium; test: as above; settings: avg, n 1
# Excerpt: as §1, §2, §3
# [12] = system: Amaranthus retroflexus; test: as above; settings: avg, n 2
# Excerpt: as §1, §2, §3
# [13] = system: Fallopia convolvulus; test: as above; settings: avg, n 1
# Excerpt: as §1, §2, §3
# [14] = system: Chenopodium album; test: as above; settings: avg, n 6
# Excerpt: as §1, §2, §3
# [15] = system: Persicaria lapathifolia; test: Herbicide efficacy trial with Colby calculation, Example 3; settings: application rate 1000 (ml or gr); for % control observed 13 DAA: 13 days after application; for % control observed 38 DAA: 38 days after application; for % control observed 76 DAA: 76 days after application
# Excerpt: (§4) In the context of the present subject matter, the term "synergy" is as defined by Colby S. R. in an article entitled "Calculation of the synergistic and antagonistic responses of herbicide combinations" published in the journal Weeds, 1967, 15, p. 20-22, incorporated herein by reference in its entirety. The action expected for a given combination of three active ingredients can be calculated as follows: E = X + Y−(XY)/(100) [formula] in which E represents the expected percentage of herbicidal control for the combination of the three herbicides at defined doses (for example equal to x, y and z respectively), X is the percentage of herbicidal control observed by aclonifen at a defined dose (equal to x), Y is the percentage of herbicidal control observed by imazamox at a defined dose (equal to y). When the percentage of herbicidal control observed for the combination is greater than the expected percentage, there is a synergistic effect. When the percentage of control observed for the combination is equal to the expected percentage, there is an additive effect and wherein the percentage of herbicidal control observed for the combination is lower than the expected percentage, there is an antagonistic effect.
# as §1, with “l/ha)” for “1/ha)”
# as §2, with “5” for “2”
# [16] = system: Persicaria lapathifolia; test: Herbicide efficacy trial with Colby calculation, Example 2; settings: application rate 1000 (ml or gr)
# Excerpt: as §4
# (§5) Three herbicide treatments were compared: • a) Imazamox 40 g/l SC + Aclonifen 600 g/l SC tank-mix (Application Rate of 1.0 l/ha + 1.0 l/ha) • b) Imazamox 40 g/l SL formulation (commercially available as Pulsar) (Application Rate of 1.0 l/ha) • c) Aclonifen 600 g/l SC formulation (Application Rate of 1.0 l/ha)
# (§6) The above treatments were applied to a variety of weeds. The results are based on a 0 to 100 scale where 0 is no effect and 100 is complete control. Table 3-4 compares the individual applications of aclonifen and imazamox with the tank of the two active ingredients.
# as §3
# [17] = system: Setaria pumila; test: as above; settings: application rate 1000 (ml or gr); for % control observed 41 DAA: 41 days after application; for % control observed 62 DAA: 62 days after application; for % control observed 107 DAA: 107 days after application
# Excerpt: as §4, §5, §6, §3
# [18] = system: Solanum Nigrum; test: as above; settings: application rate 1000 (ml or gr)
# Excerpt: as §4, §5, §6, §3
structure (smiles),measurement,setting,value
"Nc1c([N+](=O)[O-])ccc(Oc2ccccc2)c1Cl [Aclonifen SC, 2-Chlor-6-nitro-3-phenoxyanilin]",Efficacy (% Control),"[1]; 600 g ai/ha, 1,00 l/ha",74.7%
same,Efficacy (% Control),"[2]; 600 g ai/ha, 1,00 l/ha",78.1%
same,Efficacy (% Control),"[3]; 600 g ai/ha, 1,00 l/ha",84.7%
same,Efficacy (% Control),"[4]; 600 g ai/ha, 1,00 l/ha",62.5%
same,Efficacy (% Control),"[5]; 600 g ai/ha, 1,00 l/ha",78.9%
same,Efficacy (% Control),"[6]; 600 g ai/ha, 1,00 l/ha",38.3%
same,Efficacy (% Control),"[7]; 600 g ai/ha, 1,00 l/ha",81.3%
same,Efficacy (% Control),"[8]; 600 g ai/ha, 1,00 l/ha",20.0%
same,Efficacy (% Control),"[9]; 600 g ai/ha, 1,00 l/ha",50.0%
same,Efficacy (% Control),"[10]; 600 g ai/ha, 1,00 l/ha",25.0%
same,Efficacy (% Control),"[11]; 600 g ai/ha, 1,00 l/ha",66.8%
same,Efficacy (% Control),"[12]; 600 g ai/ha, 1,00 l/ha",72.0%
same,Efficacy (% Control),"[13]; 600 g ai/ha, 1,00 l/ha",91.0%
same,Efficacy (% Control),"[14]; 600 g ai/ha, 1,00 l/ha",85.1%
same,% control observed 13 DAA,[15]; 600 g/ha,71.02%
same,% control observed 38 DAA,[15]; 600 g/ha,44.14%
same,% control observed 76 DAA,[15]; 600 g/ha,38.25%
same,% control observed,[16]; 600 g/ha,38.30%
same,% control observed,[17]; 600 g/ha,20%
same,% control observed 41 DAA,[17]; 600 g/ha,11.00%
same,% control observed 62 DAA,[17]; 600 g/ha,20.00%
same,% control observed 107 DAA,[17]; 600 g/ha,20.00%
same,% control observed,[18]; 600 g/ha,33.33%
"COCc1cnc(C2=NC(C)(C(C)C)C(=O)N2)c(C(=O)O)c1 (racemic) [Imazamox SL, 2-[(RS)-4-isopropyl-4-methyl-5-oxo-2-imidazolin-2-yl]-5-methoxymethylnicotinic acid]",Efficacy (% Control),"[1]; 40 g ai/ha, 1,00 l/ha",69.0%
same,Efficacy (% Control),"[2]; 40 g ai/ha, 1,00 l/ha",85.1%
same,Efficacy (% Control),"[3]; 40 g ai/ha, 1,00 l/ha",84.6%
same,Efficacy (% Control),"[4]; 40 g ai/ha, 1,00 l/ha",75.0%
same,Efficacy (% Control),"[5]; 40 g ai/ha, 1,00 l/ha",88.4%
same,Efficacy (% Control),"[6]; 40 g ai/ha, 1,00 l/ha",67.9%
same,Efficacy (% Control),"[7]; 40 g ai/ha, 1,00 l/ha",58.1%
same,Efficacy (% Control),"[8]; 40 g ai/ha, 1,00 l/ha",81.0%
same,Efficacy (% Control),"[9]; 40 g ai/ha, 1,00 l/ha",90.5%
same,Efficacy (% Control),"[10]; 40 g ai/ha, 1,00 l/ha",37.5%
same,Efficacy (% Control),"[11]; 40 g ai/ha, 1,00 l/ha",80.5%
same,Efficacy (% Control),"[12]; 40 g ai/ha, 1,00 l/ha",93.3%
same,Efficacy (% Control),"[13]; 40 g ai/ha, 1,00 l/ha",92.8%
same,Efficacy (% Control),"[14]; 40 g ai/ha, 1,00 l/ha",91.0%
same,% control observed 13 DAA,[15]; 40 g/ha,79.47%
same,% control observed 38 DAA,[15]; 40 g/ha,58.11%
same,% control observed 76 DAA,[15]; 40 g/ha,55.50%
same,% control observed,[16]; 40 g/ha,67.90%
same,% control observed,[17]; 40 g/ha,81%
same,% control observed 41 DAA,[17]; 40 g/ha,20.00%
same,% control observed 62 DAA,[17]; 40 g/ha,90.00%
same,% control observed 107 DAA,[17]; 40 g/ha,81.00%
same,% control observed,[18]; 40 g/ha,79.45%
